Consider one substance from publication PMC11187126, “Structure and dynamics of the pyroglutamylated RF-amide peptide QRFP receptor GPR103” (Nature Communications, 2024).

The target of the assay is T1, GPR103 Q184^4.64A (Homo sapiens, UniProt Q96P65, Q184A).
T1 construct: we used human full-length QRFPR-encoding plasmids; expressed in transfected cells; host or cells: HEK293 cells, pCAGGS vector
T1 sequence (Q96P65 1-431 Q184A): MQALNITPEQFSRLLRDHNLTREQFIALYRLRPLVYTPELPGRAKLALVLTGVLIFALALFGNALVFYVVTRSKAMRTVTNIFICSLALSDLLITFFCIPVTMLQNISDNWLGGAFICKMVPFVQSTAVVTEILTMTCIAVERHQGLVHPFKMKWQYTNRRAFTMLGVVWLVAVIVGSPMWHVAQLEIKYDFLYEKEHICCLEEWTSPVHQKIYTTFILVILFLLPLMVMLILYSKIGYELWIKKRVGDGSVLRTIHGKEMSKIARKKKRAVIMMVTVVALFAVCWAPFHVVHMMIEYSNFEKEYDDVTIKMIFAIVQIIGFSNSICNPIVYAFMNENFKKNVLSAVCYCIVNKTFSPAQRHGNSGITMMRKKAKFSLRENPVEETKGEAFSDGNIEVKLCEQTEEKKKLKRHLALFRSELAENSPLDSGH
The assay can be described thus: TGFα shedding assay; Exp. level WT (1:5). The format is cell-based. As for the experimental part:
For the TGFα shedding assay and the flow cytometry analysis, we used human full-length QRFPR-encoding plasmids. Specifically, GPR103 was N-terminally modified with an HA signal sequence followed by a FLAG epitope and then a flexible linker ([…]; the FLAG epitope is underlined) and inserted into the pCAGGS vector. Plasmid encoding GPR103 mutants were generated using Quickchange Site-Directed Mutagensis kit (Agilent).
The TGFα shedding assay was performed as described previously with minor modifications. Plasmid transfection was performed in a 6-well plate with a mixture of 500 ng (per well in a 6-well plate) AP-TGFα-encoding plasmid and 200 ng GPR103-encoding plasmid. After 1-day culture, the transfected cells were harvested by trypsinization, pelleted by centrifugation at 190 × g for 5 min, and washed once with 5 mM HEPES (pH 7.4)-containing Hank’s Balanced Salt Solution (HBSS). After centrifugation, the cells were resuspended in 8 mL of the HEPES-containing HBSS. The cell suspension was seeded in a 96-well culture plate (cell plate) at a volume of 90 μL (per well hereafter) and incubated in a 37 °C incubator with 5% CO2 for 30 min. […] After spinning the cell plates at 190 × g for 2 min, 80 μL of conditioned media was transferred to an empty 96-well plate (conditioned media (CM) plate). Then, 80 μL of AP reaction solution (10 mM p-nitrophenylphosphate (p-NPP), 120 mM Tris-HCl (pH 9.5), 40 mM NaCl, and 10 mM MgCl2) was dispensed into the cell plates and the CM plates. Absorbance at 405 nm of the plates was measured using a microplate reader (SpectraMax 340 PC384, Molecular Devices) before and after 1-h incubation at room temperature. Ligand-induced AP-TGFα release was calculated by subtracting spontaneous AP-TGFα release signal from ligand-induced AP-TGFα release signal. The AP-TGFα release signals were fitted to a four-parameter sigmoidal concentration–response curve, using the Prism 10 software (GraphPad Prism). For each replicate experiment, the pEC50 parameter (negative logarithmic values of EC50 values) of the individual GPR103 mutants were normalized to that of the wild-type GPR103 performed in parallel, and resulting ∆pEC50 values were used to denote ligand response activity of the mutants. […]
Exp. le vel: WT (1:5 0)Exp. le vel: WT (1:5 0)Exp. le vel: WT (1:5 0)Exp. le vel: WT (1:2 0)Exp. le vel: WT (1:2 0)Exp. le vel: WT (1:1 0) […]
L1 4N - t e r mA F2 5N - t e r mA I 2 6N - t e r mA Y 2 9N - t e r mA C 9 82 .5 7A T10 22 .6 1A Exp . l eve l: WT (1 :5)Exp . l evel : >WT (1 :1)Exp. le vel: WT (1:2 0)Exp. le vel: WT (1:2 0)Exp. le vel: WT (1:5 0)Exp . l eve l: WT (1 :1) […]
Exp. le vel: WT (1:1 0)Exp. le vel: WT (1:2 0) C 1 1 83 .2 5AExp. le vel: WT (1:5 0)Exp. le vel: WT (1:5 0)Exp. le vel: WT (1:2 0)Exp . l eve l: WT (1 :5) […]
Exp. le vel: WT (1:5 0)Exp. le vel: WT (1:1 0)Exp. le vel: WT (1:5 0) E203ECL2AExp . l evel : >WT (1 :1)Exp. le vel: WT (1:5 0)Exp. le vel: WT (1:5 0) […]
Exp . l eve l: WT (1 :1) F28Exp. le vel: WT (1:5 0) C 2 8 56 .4 7AExp. le vel: WT (1:2 0) WExp. le vel: WT (1:2 0) F28Exp. le vel: WT (1:5 0)Exp . l evel : >WT (1 :1) […]
Exp. le vel: WT (1:5 0)Exp. le vel: WT (1:5 0) C 3 2 77 .4 8AExp . l eve l: WT (1 :5)Exp . l evel : >WT (1 :1)Exp . l evel : >WT (1 :1) […]
Suppl eme nt ary Figure 1 | Mutational analysis of GPR103. […]
mutants. Data are presented as mean values ± SEM, normally n=3-5; dots), each performed in triplicate. b-d Cell-surface expression (b) and QRFP26-in-duced activation of GPR103 (c, d) were analyzed by the flow cytometry and the TGFα shedding assay, respectively. From the concentration–response curves (a), Emax (c) and ΔpEC50 (d) values relative to the wild type were calculated. Colors in the mutant bars indicate an expression level matching to that of titrated wild type. Statistical analyses were performed using the ordinary one-way ANOVA followed by Dunnett tests with the expression-matched […]

No end group written: not given here.

By Emax is commonly meant the maximal effect, on the per cent scale that the assay sets. One may read the EC50 as the concentration needed to bring the measured effect to its halfway point. A low value points to greater potency. With TSGPLGNLAEELNGYSRKKGGFSFRF-NH2 [QRFP26], the Emax was 99.8% (mean) and 103 ± 2.2% (n = 3). The substance also had an EC50 (n = 3) of 234 nM.
